Laboratory results taken from patent US20250368687A1, “SHORT SYNTHETIC PEPTIDES AND USES THEREOF IN THE TREATMENT OF ENTEROVIRUS INFECTION” (CITY UNIVERSITY OF HONG KONG, priority 2024, published 2025).

Columns and labels:
Type in all cases: cell-based
[1] = tested on: 2Apro-induced relocalization of Hsp27 and hnRNP A1 in RD cells; assay: Immunofluorescence colocalization assay of 2Apro-induced relocalization of Hsp27 and hnRNP A1; conditions: 25 μM for 2 hours, transfected with 2Apro for 24 hours
Protocol: FIGS. 9A-9B Peptide S78 blocks the 2A^pro-induced relocalization of Hsp27 and hnRNP A1. RD cells on the coverslips were treated with peptides (S78, S78A, and S82A) at the concentration of 25 μM for 2 hours, and then transfected with 2A^pro for 24 hours. The cells were fixed and stained with anti-Hsp27and anti-hnRNPAI, followed by Alexa Fluor 488-conjugated anti-rabbit antibody and Alexa Fluor 594-conjugated anti-mouse antibody. The nuclei were stained with Hoechst. The images were captured by Nikon A1HD25 Confocal Microscope. The JACoP-plugin of the extended ImageJ version Fiji was used to compute the M1 colocalization coefficient, in which (FIG. 9A) is M1 colocalization coefficient for the fraction of Hsp27 in Hoechst and (FIG. 9B) is the M1 colocalization coefficient for the fraction of hnRNP A1 in Hoechst. Statistical analyses were carried out using Student's t-test. *: p<0.05, **: p<0.01, ***: p<0.001. Data are expressed as mean ±SD.
The cells on coverslips were infected with EV-A71 at the multiplicity of infection (MOI) of 40 for 6 hrs to assure the high efficiency of viral infection. Then the cells were fixed by 4% paraformaldehyde for 20 min, permeabilized by 0.5% Triton X-100 for 15 min, blocked with 5% BSA for 2 hrs, and stained by incubation with anti-Hsp27 (GTX101145) and anti-hnRNP A1 (sc-32301) antibody, then with Alexa Fluor 488 conjugated anti-rabbit antibody and Alexa Fluor 594 conjugated anti-mouse antibody respectively. After washing four times with 0.2% Triton X-100, the nuclei were stained with DAPI or Hoechst for 5 min. The images were captured by a Nikon A1HD25 High speed and Large Field of View Confocal Microscope. Colocalization analysis was conducted using the JACoP-plugin of the extended ImageJ version Fiji. The M1 colocalization coefficient was computed to illustrate the colocalization levels of Hsp27 and hnRNP A1 overlapped with Hoechst.

[2] = tested on: EV-A71 IRES activity; assay: Dual-luciferase IRES reporter assay in HEK 293T cells pre-treated with peptides; conditions: 25 μM for 2 hours; for decrease of 2Apro-induced viral IRES activity: 24 h
Protocol: (§1) FIGS. 10A-10K. Peptide S78 inhibited EV-A71 replication and propagation. (FIG. 10A) RD cells were pre-treated with peptides S78 or for 2 hours and infected with EV-A71 at the MOI of 10 for 6 hours. Cell lysates were collected for western blot assay. Hsp27 phosphorylation on Ser 15, 78, 82 were detected by specific antibodies. β-Actin were detected as internal control. (FIG. 10B) Densitometric analysis of FIG. 9A. (FIG. 10C) HEK 293T cells were pre-treated with peptides S78 or S78A at the concentration of 25 μM for 2 hours and then co-transfected with Hsp27-WT plasmid (800 ng), pIRES reporter plasmid (200 ng) and 2A^pro-expressing plasmid or 2AC110A-expressing plasmid (200 ng) for 24 h, then the luciferase activity was measured. (FIG. 10D-10E) RD cells were treated with peptides S78 or S78A and then infected with EV-A71. EV-A71 VP1 were detected. (FIG. 10F) RD cells were treated with peptides and then infected with EV-A71 at the MOI of 1 for 12 hours. The EV-A71-induced CPE was captured. (FIG. 10G-10H) Intracellular viral RNA was extracted and quantified by qPCR. (FIG. 10I) Densitometric analysis FIG. 9D-E. (FIG. 10J) RD cells were treated with peptides S78 or and then infected with EV-A71 at the MOI of 1 for 12 hours. Extracellular viral RNA was extracted and quantified by qPCR. (FIG. 10K) Viral titration was calculated by TCID50. The Statistical analyses were carried out using Student's t-test. *: p<0.05, **: p<0.01, ***: p<0.001. Data are expressed as mean ±SD.
(§2) FIGS. 11A-11G Inhibition of EV-A71 Protein Translation and Viral Reproduction by peptide S82A. (FIG. 11A) HEK 293T cells were pre-treated with peptides NC, S78, S78A, S82A, or S78-3A at the concentration of 25 μM for 2 hours and then co-transfected with Hsp27-WT plasmid (800 ng), pIRES reporter plasmid (200 ng) and 2A^pro-expressing plasmid for 24 h, then the luciferase activity was measured. (FIG. 11B) RD cells were pre-treated with peptides NC at indicated concentrations for 2 hours and infected with EV-A71 at the MOI of 1 for 9 hours. Intracellular viral RNA was extracted and quantified by qPCR. […] EV-A71 VP1 were detected. β-Actin was detected as an internal control. (FIG. 11F) Densitometric analysis of the EV-A71 VP1 level in FIG. S7C-E was quantified and normalized with β-Actin using ImageJ. […] Viral titration was calculated. […] Data are expressed as mean ±SD.
HEK 293T cells were seeded in 24-wells, and then co-transfected with plasmids to simultaneously express 2A^pro (200 ng), pIRES reporter (200 ng), and the wild-type Hsp27 or its mutants (800 ng). […] The Renilla luciferase (RLuc) and Firefly luciferase (FLuc) activity were determined by using a dual-luciferase reporter assay (Promega) according to the manufacturer's instructions in a Lumat LB9507 bioluminometer.

[3] = tested on: EV-A71; assay: Virus titration (TCID50); conditions: TCID50, RD cells (FIG. 10K)
Protocol: as §1, with “The Statistical analyses were carried out using Student's t-test. *: p<0.05, **: p<0.01, ***: p<0.001.” left out
as §2, with “(FIG. 11B) RD cells were pre-treated with peptides NC at indicated concentrations for 2 hours and infected with EV-A71 at the MOI of 1 for 9 hours.” left out, “±SD. […]” for “±SD.”

[4] = CCK-8 assay; conditions: human; RD cells, data not shown
Protocol: RD cells were seeded in 96-well cell plates (1×10^4/well) and placed in the 5% CO2 incubator for 1 day. Then the cells were treated with peptides for 2 days. 90 μl medium and 10 μl of CCK-8 (BioSharp, BS350B) was added to each well of the 96-well plate, which were incubated at 37° C. for 1 h. A microplate reader (BioTek, Synergy H1) was used to measure the OD value of each well at 450 nm.

Row | Substance | 2Apro-induced relocalization of Hsp27 and hnRNP A1 [1] | decrease of 2Apro-induced viral IRES activity [2] | decrease of viral titer [3] [folds] | CC50 at 2 days [4] [µM] | effect on viral IRES activity (in words) ([2]; 24 h (FIG. 11A))
1 | Ac-RKKRRQRRRAYSRALSRQLSS-NH2 [S78] | almost completely blocked | 34% | 450 | > 600 | 
2 | Ac-RKKRRQRRRYSREANQPKPSPKRESGEE-NH2 [NC, reference compound] |  |  |  |  | did not affect
3 | Ac-RKKRRQRRRAYSRALARQLSS-NH2 [S78A] | still showed a certain cellular redistribution | about 10% | 50 | > 600 | 
